Publication PMC9734138, “Structure of the AlgKX modification and secretion complex required for alginate production and biofilm attachment in Pseudomonas aeruginosa” (Nature Communications, 2022)

How the values were obtained:
AlgKXPp complex = target: T1, AlgKXPp complex (Pseudomonas putida, UniProt Q88NC7+Q88ND0); experiment: ESI-MS alginate binding assay, AlgKXPp complex (binding model fit); conditions: AlgKPp and AlgXPp 5 µM each, ligand 100 µM, ammonium acetate 200 mM pH 7.0
T1 construct: Induced cells containing either pET26b P. putida AlgK^33–484 or pET24b P. putida AlgX^∆Nterm; His6 (C); made in house; host or cells: E. coli BL21 (DE3) CodonPlus (AlgK) and E. coli Lemo21 (DE3) (AlgX)
Procedure: (§1) AlgXPp and AlgKPp stock solutions were buffer exchanged into 200 mM aqueous ammonium acetate (pH 7) using a 10 kDa cut-off Amicon 0.5 mL microconcentrators (EMD, Millipore, Billerica, MA). Stock solutions of oligosaccharides were prepared by dissolving a known amount of solid compound in Milli-Q water and stored at −20 °C until used. Nanoelectrospray (nanoESI) mass spectrometry measurements were performed on a Q Exactive Orbitrap (Orbitrap) mass spectrometer (Thermo Fisher Scientific, Bremen, Germany) and on a Q Exactive Ultra-High Mass Range Orbitrap mass spectrometer (Thermo Fisher Scientific, Bremen, Germany), both equipped with a nanoflow ESI source. NanoESI was performed by applying a voltage of ~0.8 kV to a platinum wire inserted into the nanoESI tip, which was produced from a borosilicate glass capillary (1.0 mm o.d., 0.78 mm i.d.) pulled to ~2 μm o.d. using a P − 1000 micropipette puller (Sutter Instruments, Novato, CA). The inlet capillary of the MS was heated to 120 °C, the S-lens RF level was set at 100, automatic gain control target was set at 1 × 10^6 with a maximum injection time of 200 ms. All MS data were acquired and processed using Thermo Xcalibur 4.1 software.
(§2) 3b AlgXPpL⇌AlgXPp+L,Ka,xL=[AlgXPpL]/AlgXPp[L] 3c AlgKXPp⇌AlgKPp+AlgXPp,Ka,kx=[AlgKXPpL]/AlgKPp[AlgXPp] 3d AlgKXPpL⇌AlgKXPp+L,Ka,kxL=[AlgKXPL]/AlgKXPpLL
(§3) The corresponding mass balance equations are shown below:4a [L]0=[L]+[AlgKPpL]+[AlgXPpL]+[AlgKXPpL] 4b [AlgKPp]0=[AlgKPp]+[AlgKPpL]+[AlgKXPp]+[AlgKXPpL] 4c [AlgXPp]0=[AlgXPp]+[AlgXPpL]+[AlgKXPp]+[AlgKXPpL] where […], […], and [L]0 are initial concentrations of AlgKPp, AlgXPp, and oligosaccharide ligand L; Ka,kL, Ka,xL, and Ka,kx are association constant values determined as described above, and Ka,kxL is unknown parameter found by the fitting of the model to experimental data.

AlgKXPp = AlgKXPp (Pseudomonas putida, UniProt Q88NC7+Q88ND0); experiment: NanoESI-MS ligand titration of the AlgK-AlgX mixture, Ka,kxL fitted from the ligand-bound fraction of the complex with a coupled-equilibria model, 200 mM aqueous ammonium acetate pH 7, 25 °C by the table title (21 °C in the methods).; format: binding; conditions: n = 3
Sequence of AlgKXPp (Q88ND0 whole entry, one chain of several): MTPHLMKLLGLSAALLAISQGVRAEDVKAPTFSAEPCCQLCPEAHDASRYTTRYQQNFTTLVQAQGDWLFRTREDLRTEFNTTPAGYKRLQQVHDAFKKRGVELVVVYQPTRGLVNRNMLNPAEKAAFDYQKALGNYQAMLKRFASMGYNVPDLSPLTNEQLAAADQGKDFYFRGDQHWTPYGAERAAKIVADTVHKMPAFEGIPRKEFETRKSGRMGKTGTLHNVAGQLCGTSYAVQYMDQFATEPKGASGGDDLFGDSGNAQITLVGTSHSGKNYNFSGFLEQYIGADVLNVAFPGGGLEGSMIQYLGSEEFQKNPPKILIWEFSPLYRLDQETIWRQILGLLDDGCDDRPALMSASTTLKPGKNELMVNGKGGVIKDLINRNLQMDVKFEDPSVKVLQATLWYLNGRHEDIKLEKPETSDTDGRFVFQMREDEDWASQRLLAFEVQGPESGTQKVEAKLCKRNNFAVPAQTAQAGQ
Procedure: as §1
(§4) The Ka,kx for the interaction of AlgKPp and AlgXPp with the formation of AlgKXPp complex was obtained using the Slow Mixing Mode (SLOMO) ESI-MS assay. Briefly, ~2 µL of a solution of AlgXPp (5 µM) and AlgKPp (3–10 µM) was introduced into the nanoESI tip, followed by injection of 10 µL of solution of AlgXPp (5 µM) and AlgKPp (45 µM). The binding measurements were carried out at 21 °C; time-resolved mass spectra were averaged over 1 min intervals and the sum of the charge state-normalized abundances of the […] and AlgKXPp complex ions were calculated automatically using the SWARM software (https://github.com/pkitov/CUPRA-SWARM)[72]. The corrected (for response factors) abundances of AlgXPp and AlgKXPp species were used to calculate R/(R+1) values for AlgKPp (designated as L) and AlgXPp (designated as P) interaction and association constant Ka,kx was found using Eq. (1) (Ka,kx in this case designated as Ka in Eq. (1)).
as §2, §3

AlgXPp [1] = target: T2, AlgXPp (Pseudomonas putida, UniProt Q88ND0); experiment: Direct nanoESI-MS binding assay of the single proteins with reference protein correction for nonspecific binding, 200 mM aqueous ammonium acetate pH 7, 25 °C by the table title (21 °C in the methods).; set-up: gene algX
Procedure: as §1
(§5) Association constants (Ka,kL and Ka,xL) for interactions of AlgKPp and AlgXPp with oligosaccharide ligands were obtained using the direct ESI-MS assay[68],[69]. The binding measurements were carried out at 21 °C, and the equilibrium mixtures were prepared by mixing aliquots of the stock solutions of proteins and ligands in aqueous ammonium acetate (200 mM). ESI-MS measurements were performed after a 1 h incubation time period. All mass spectra were corrected, when needed, for the occurrence of nonspecific carbohydrate-protein binding during the ESI process using the reference protein method. Ka,kL and Ka,xL values were determined from the abundance ratio (R) of the ligand-bound (PL) to free protein (P) ions (P can be AlgKPp or AlgXPp), after correction for nonspecific ligand binding, and the initial concentrations of protein ([P]0) and ligand ([L]0), Eq. (1):1 R/R+1=KaP0+KaL0+1−(1−KaL0+KaP0)^2+4KaL0/2KaP0 where R is taken to be equal to the corresponding equilibrium concentration ratio ([PL]/[P]) in solution, Eq. (2):2 R=∑Ab(PL)/∑Ab(P)=[PL]/[P] and Ka is Ka,kL or Ka,xL.
Target sequence in this assay (Q88ND0 whole entry): as the sequence (Q88ND0 whole entry, one chain of several) above

AlgKPp = AlgKPp (Pseudomonas putida, UniProt Q88NC7); experiment: as above; set-up: gene algK
Procedure: as §1, §5

AlgXPp [2] = target: T2, AlgXPp; experiment: Slow Mixing Mode (SLOMO) ESI-MS assay of AlgKPp-AlgXPp complex formation; format: binding; set-up: His6 (C); made in house; host or cells: E. coli Lemo21 (DE3); conditions: for Fraction of bound AlgX: mean, n = 3
Procedure: as §1, §4

[3] = read-out: Ka (M^-1) (AlgKPp), Ka (M^-1) (AlgXPp)

pentadeca-hyaluronic acid [HA15, reference compound]
ligand binding to AlgKXPp detected by ESI-MS (AlgKXPp complex): No ligand binding was detected
ligand binding to AlgKXPp detected by ESI-MS (AlgKXPp complex; listed as 15-mer of hyaluronic acid): no specific binding

alginate heptasaccharide of alternating alpha-L-guluronate (G) and beta-D-mannuronate (M) [GMGMGMG]
Ka (M^-1) (AlgKXPp) (AlgKXPp): (18 ± 0.6) × 10^2 M-1
Ka (M^-1) (AlgKPp); Ka (M^-1) (AlgXPp) (AlgXPp [1]): (2.7 ± 0.3) × 10^2 M-1

alginate hexasaccharide of alternating alpha-L-guluronate (G) and beta-D-mannuronate (M) [GMGMGM]
Ka (M^-1) (AlgKXPp) (AlgKXPp): (12 ± 0.7) × 10^2 M-1
Ka (M^-1) (AlgKPp); Ka (M^-1) (AlgXPp) (AlgKPp): (2.5 ± 0.1) × 10^2 M-1
Ka (M^-1) (AlgKPp); Ka (M^-1) (AlgXPp) (AlgXPp [1]): (4.5 ± 1.0) × 10^2 M-1

alginate hexasaccharide of alpha-L-guluronate (G) and beta-D-mannuronate (M), sequence GMGGMG
Ka (M^-1) (AlgKXPp) (AlgKXPp): (5.4 ± 0.5) × 10^2 M-1
Ka (M^-1) (AlgKPp); Ka (M^-1) (AlgXPp) (AlgKPp): (3.0 ± 0.9) × 10^2 M-1
Ka (M^-1) (AlgKPp); Ka (M^-1) (AlgXPp) (AlgXPp [1]): (1.4 ± 0.3) × 10^2 M-1

CCCO[C@@H]1O[C@H](C(=O)O)[C@@H](O[C@@H]2O[C@H](C(=O)O)[C@@H](O[C@@H]3O[C@H](C(=O)O)[C@@H](O[C@@H]4O[C@H](C(=O)O)[C@@H](O[C@@H]5O[C@H](C(=O)O)[C@@H](O[C@@H]6O[C@H](C(=O)O)[C@@H](O[C@@H]7O[C@H](C(=O)O)[C@@H](O)[C@H](O)[C@@H]7O)[C@H](O)[C@@H]6O)[C@H](O)[C@@H]5O)[C@H](O)[C@@H]4O)[C@H](O)[C@@H]3O)[C@H](O)[C@@H]2O)[C@H](O)[C@@H]1O [ManA7, heptamer of beta-D-mannuronic acid (1-4 linked, polyM heptasaccharide)]
Kd (AlgKXPp; read-out: Ka (M^-1) (AlgKXPp)): 1000 µM
Kd (AlgKPp; [3]): 2380 µM
Kd (AlgXPp [1]; [3]): 3850 µM

B1: AlgK: P. putida KT2440 AlgK residues 33–484, His-tagged TPR-containing lipoprotein (protein)
chain: CAGLPDQRLAQEALERGDLATAQSNYQALAAMGYADAQVGLADMQVASGDSAQQAKAEKLYREAAQTSPRARARLGKWLAAKPGASDAEHREAERLLSQAFEQGEDSALVPLIVLYLQYPQSWPEIDPQQRIDQWRARGLPQADLAQIILYRTQGTYAQHLGEIEQVCQRWLRRMDVCWYELATVYQMQGNAEKQKVLLEQLRAAYKAGRVPGERVDSVAGVLADGELGQPDPQTAQALLEEIAPSYPAAWVSLAKLLYDYPDQGDLEKMLGYLKNAQDAAQPRAELLLGRLYYDGKWAPQDPRKAERHLLKAAASEPQANYYLGQIYRRGFLGKVYPQKAVDHLILAARAGQASADMALAQLWSQGRGIQPNRVNAYVFGQLAVQQQVPQASDLLGQIEAQLPPAERSQAQQLLKREQQSRGNNWQATVSLLQSQDSPINEEEPESL
Fraction of bound AlgX (AlgXPp [2]; concentration of AlgK 3 µM): 0.22
Fraction of bound AlgX (AlgXPp [2]; concentration of AlgK 5 µM): 0.24
Fraction of bound AlgX (AlgXPp [2]; concentration of AlgK 7.5 µM): 0.31
Fraction of bound AlgX (AlgXPp [2]; concentration of AlgK 10 µM): 0.42

B2: AlgKXPp: 1:1 complex of P. putida AlgK and AlgX (protein, UniProt Q88NC7 33-484; Q88ND0 25-479, looked up)
Alginate biosynthesis protein … 1: CAGLPDQRLANEALKRGDTALAERNYKALADLGYSEAQVGLADIKVATRDPSQIKEAEATYRAAAATSPRAQARLGRLLVAKPDSTQAEREEAETLLKQAAKQGQSNTLIPLAMLYLSYPQSFPKVNAQQQIDQWRAAGNPEAGLAQVLLYRTQGTYDQHLGEVEKICKAALNTTDICYVELATVYQKRGQADQQAALLGQLKSAYARGAVPATRVDSVARVLADRSLGQTDEKTAKELLEQVAPANPASWVSLAQLVYDFPELGDTDQLMAYIDKGREAEQPRAELLLGRLYYEGKTLPADAQKAEQHLQAAAEAGEISAHYYLGQLYRRGYLGNVEPQKAVDHLLAAARGGQNSADYALAQLFSEGHGIRPQPGNAWVFAQLSQANPTPQSAELLQQLDQQLTPDQRNQAQQLLDQEKRARGSLAQGANSTLALEALQDDEKEVDGEDSL
Alginate biosynthesis protein … 2: EDVKAPTFSAEPCCQLCPEAHDASRYTTRYQQNFTTLVQAQGDWLFRTREDLRTEFNTTPAGYKRLQQVHDAFKKRGVELVVVYQPTRGLVNRNMLNPAEKAAFDYQKALGNYQAMLKRFASMGYNVPDLSPLTNEQLAAADQGKDFYFRGDQHWTPYGAERAAKIVADTVHKMPAFEGIPRKEFETRKSGRMGKTGTLHNVAGQLCGTSYAVQYMDQFATEPKGASGGDDLFGDSGNAQITLVGTSHSGKNYNFSGFLEQYIGADVLNVAFPGGGLEGSMIQYLGSEEFQKNPPKILIWEFSPLYRLDQETIWRQILGLLDDGCDDRPALMSASTTLKPGKNELMVNGKGGVIKDLINRNLQMDVKFEDPSVKVLQATLWYLNGRHEDIKLEKPETSDTDGRFVFQMREDEDWASQRLLAFEVQGPESGTQKVEAKLCKRNNFAVPAQTAQAGQ
association constant (Ka) for 1:1 AlgKXPp complex formation (AlgXPp [2]; SLOMO ESI-MS, AlgXPp 5 µM, 21 °C): 8.9 ± 0.9 × 10^4 M^−1
